Experimental data from patent US10072055B2, “Anti-inflammatory pharmaceutical products” (Resother Pharma APS, priority 2011, dated 2018).
“Also recorded” adds a separate entry of the source. Ends that are not written are not given here.

Experiments:
[1] = test system: PMN interaction to an activated HUVEC monolayer; assay: Flow chamber assay: PMN interaction with activated HUVEC monolayer (capture, rolling, adhesion); assay type: cell-based, human; settings: for inhibition of PMN/neutrophil-endothelium interactions in flow chamber: concentration not given; for inhibition of PMN interaction with HUVECs (capture, adhesion, rolling): 10 μM peptide, 10 min at 37° C., flow 8 min at 1 dyne/cm^2; for lowest concentration with activity on PMN-HUVEC interactions: flow chamber model
Text: FIGS. 2A-2C are a series of charts reporting data from flow chamber analysis to determine the inhibitory capability of five polypeptides of the present disclosure (Pep57 (SEQ ID NO:12); Pep59 (SEQ ID NO:13), Pep60 (SEQ ID NO:15), Pep83 (SEQ ID NO:16) and Pep84 (SEQ ID NO:14)) and Ac-ANAX1(2-26)-OH to reduce PMN interaction to an activated HUVEC monolayer.
FIGS. 4A-4C are a series of bar charts reporting percent inhibition provided by three polypeptides (UGP022 (SEQ ID NO:5); UGP025 (SEQ ID NO:7) and UGP026 (SEQ ID NO:8)) of the present disclosure, at different concentrations, on three different parameters (capture—FIG. 4A; rolling—FIG. 4B; and adhesion—FIG. 4C).
FIGS. 2A-2C are a series of charts reporting data from flow chamber analysis to determine the inhibitory capability of five polypeptides (Pep57 (SEQ ID NO: 12); Pep59 (SEQ ID NO: 13), Pep60 (SEQ ID NO: 15), Pep83 (SEQ ID NO: 16) and Pep84 (SEQ ID NO: 14)) of the present disclosure and Ac-ANAX1(2-26)-OH to reduce PMN interaction to an activated HUVEC monolayer. PMNs (5×10^6) were incubated with 10 μM of the various peptides for 10 min at 37° C. The PMNs were then flowed for 8 min at 1 dyne/cm^2, prior to quantifying the degree of PMN interaction with the HUVECs, both as PMN capture (FIG. 2A), adhesion (FIG. 2B) and rolling (FIG. 2C). […] Data are mean±SEM of 3 independent experiments (with distinct PMN and HUVEC preparations); *=P<0.05 vs. CT group, data analyzed using one way ANOVA.
FIGS. 4A-4C make a direct comparison of the activities of UGP022 (SEQ ID NO:5), UGP025 (SEQ ID NO: 7) and UGP026 (SEQ ID NO: 8) in the flow chamber assay, presenting the degree of inhibition on the three parameters under analysis (capture (FIG. 4A); rolling (FIG. 4B) and adhesion (FIG. 4C)).

[2] = test system: leukocyte recruitment into the inflamed airpouch; assay: Mouse IL-1β air-pouch inflammation model (leukocyte migration); assay type: in vivo; settings: for inhibition of leukocyte infiltration/recruitment in air-pouch model: mouse air-pouch
Experimental: FIG. 3A and FIG. 3B are a series of bar charts comparing the anti-inflammatory effects of three polypeptides (Pep57 (SEQ ID NO:12); Pep59 (SEQ ID NO:13) and Pep84 (SEQ ID NO:14)) of the present disclosure versus a vehicle-only control.
FIG. 3A and FIG. 3B are a series of bar charts comparing the anti-inflammatory effects of three polypeptides (Pep57 (SEQ ID NO: 12); Pep59 (SEQ ID NO: 13) and Pep84 (SEQ ID NO: 14)) of the present disclosure versus a vehicle-only control. Mice received 200 μl i.v. of saline+DMSO or a dose of 50 μg per animal of one of the three Ac2-26 derived peptides, immediately before the local injection of mouse IL-1β into 6-day-old airpouches. The extent of cell migration was determined 4 h later, following airpouch washing and staining of migrated cells with Gr1 marker. […] Data are mean±SEM of 5 mice per group. *P<0.05 vs. vehicle group (one way ANOVA).

FPR2 [3] = target: T1, FPR2 (Homo sapiens, UniProt P25090); assay: Binding affinity to FPR2
T1 sequence (P25090 1-351): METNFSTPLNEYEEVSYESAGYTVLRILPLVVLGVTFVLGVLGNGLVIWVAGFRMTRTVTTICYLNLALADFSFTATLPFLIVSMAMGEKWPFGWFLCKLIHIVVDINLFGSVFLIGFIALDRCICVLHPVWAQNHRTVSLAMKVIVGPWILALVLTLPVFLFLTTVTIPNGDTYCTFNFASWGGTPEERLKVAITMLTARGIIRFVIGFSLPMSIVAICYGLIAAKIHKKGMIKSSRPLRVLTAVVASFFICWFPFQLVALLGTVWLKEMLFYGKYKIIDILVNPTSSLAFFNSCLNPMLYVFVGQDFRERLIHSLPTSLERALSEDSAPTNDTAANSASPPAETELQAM

FPR1 = target: T2, FPR1 (Homo sapiens, UniProt P21462); assay: FPR1 activation (ERK phosphorylation and intracellular calcium fluxes); assay type: cell-based
T2 sequence (P21462 1-350): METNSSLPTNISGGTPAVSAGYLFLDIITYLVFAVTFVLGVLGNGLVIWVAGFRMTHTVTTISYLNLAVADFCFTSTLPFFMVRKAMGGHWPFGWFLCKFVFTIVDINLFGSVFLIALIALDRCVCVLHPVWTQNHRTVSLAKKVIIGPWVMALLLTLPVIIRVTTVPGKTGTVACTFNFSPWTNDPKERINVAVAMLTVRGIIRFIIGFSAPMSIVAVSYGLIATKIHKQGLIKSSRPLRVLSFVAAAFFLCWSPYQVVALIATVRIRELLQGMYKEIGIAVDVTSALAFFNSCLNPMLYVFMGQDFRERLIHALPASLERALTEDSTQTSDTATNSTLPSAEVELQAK

FPR2 [4] = target: T1, FPR2; assay: FPR2 activation (ERK phosphorylation and intracellular calcium fluxes); assay type: cell-based
FPR2 [5] = target: T1, FPR2; assay: p-ERK activation in HEK-FPR2 cells (western blot, densitometry p-ERK vs t-ERK); assay type: cell-based; set-up: expressed in transfected cells; host or cells: HEK cells (HEK-FPR2); settings: for p-ERK activation through the FPR2 receptor: 10 μM peptide, 8 minutes, HEK-FPR2 cells
Text: FIG. 1A and FIG. 1B show western blotting analysis comparing p-ERK activation potency through the FPR2 receptor for five polypeptides of the present disclosure (Pep57 (SEQ ID NO:12); Pep59 (SEQ ID NO:13), Pep60 (SEQ ID NO:15), Pep83 (SEQ ID NO:16) and Pep84 (SEQ ID NO:14)) relative to Ac-ANAX1(2-26)-OH. FIG. 1A is a representative blot for p-ERK and t-ERK.
The experiments whose results are reported in FIG. 1A and FIG. 1B were directed to determining which of the five polypeptides tested (Pep57 (SEQ ID NO: 12); Pep59 (SEQ ID NO: 13), Pep60 (SEQ ID NO: 15), Pep83 (SEQ ID NO: 16) and Pep84 (SEQ ID NO: 14)) best activated the p-ERK through the FPR2 receptor, similar to Ac-ANAX1(2-26)-OH, the parent peptide. The HEK-FPR2 cells were co-incubated with 10 μM of the novel Ac2-26 peptides for 8 minutes following which the cell were lysed and resuspended in cell lysis solution. Then 100 ng of total protein were loaded on to 10% polyacrylamide gel. Following electrophoresis, transfer and blocking the membrane was first probed with an anti p-ERK antibody and then stripped and reprobed with and anti total ERK antibody. […] Data presented as mean and SEM of 3 distinct experiments with one way ANOVA employed for statistical analysis. (*=P<0.05 vs. CT).

[6] = 50 μg per animal i.v., IL-1β, 4 h

Row | Substance | inhibition of PMN/neutrophil-endothelium interactions in flow chamber [1] | inhibition of leukocyte infiltration/recruitment in air-pouch model [2] | binding affinity to FPR2 (FPR2 [3]) | activation of FPR1 (FPR1) | activation of FPR2 (FPR2 [4]) | inhibition of PMN interaction with HUVECs (capture, adhesion, rolling) [1] | p-ERK activation through the FPR2 receptor (FPR2 [5]) | downstream signaling via the FPR family of receptors (FPR2 [5]) | lowest concentration with activity on PMN-HUVEC interactions [1] [pM] | GR1+ve cells in air-pouch (FIG. 3B) [2, 6] | migrated cell count in air-pouch (FIG. 3A) [2, 6]
1 | ANXA1(2-50) Gly51-OH (AMVSEFLKQAWFIENEEQEYVQTVKSSKGGPGSAVSPYPTFNPSSDVAAG-OH; ends and bridges not checked) [UGP021, 50 amino acids; amino acids 2-50 of human Annexin 1, position 50 of the polypeptide is glycine] | more potent than Ac-ANXA1(2-26)-OH and full length ANXA1 | more potent than Ac-ANXA1(2-26)-OH and full length ANXA1; also recorded: possess anti-inflammatory activities in an in vivo assay of leukocyte recruitment | binding affinity to the FPR2 in the nanomolar range | could activate both FPR1 and FPR2 | could activate both FPR1 and FPR2 | – | – | – | – | – | –
2 | ANXA1(2-50)-OH (AMVSEFLKQAWFIENEEQEYVQTVKSSKGGPGSAVSPYPTFNPSSDVAA-OH; ends and bridges not checked) [UGP024, 49 amino acids; amino acids 2-50 of human Annexin 1] | more potent than Ac-ANXA1(2-26)-OH and full length ANXA1 | more potent than Ac-ANXA1(2-26)-OH and full length ANXA1; also recorded: possess anti-inflammatory activities in an in vivo assay of leukocyte recruitment | – | could activate both FPR1 and FPR2 | could activate both FPR1 and FPR2 | – | – | – | – | – | –
3 | Ac-ANAX1(2-26)-OH (Ac-AMVSEFLKQAWFIENEEQEYVQTVK-OH) [Ac2-26, parent peptide; mimics the 2nd to the 26th amino acids of the Annexin A1 N-terminal region, N-terminally acetylated, reference compound] | – | – | – | – | – | inhibitory properties | activation caused by the parent Ac2-26 | – | – | – | –
4 | Asp11,22-Ac-ANAX1(2-26)-OH (Ac-AMVSEFLKQDWFIENEEQEYDQTVK-OH) [Pep59, 25 amino acids; Annexin 1 (2-26), residues 10 and 21 aspartic acid, residue 1 acetylated] | – | – | – | – | – | did not display any inhibitory properties in this assay | p-ERK activated was observed to be highest; also recorded: very high p-ERK activation potential | lead to downstream signaling via the FPR family of receptors | – | – | –
5 | Glu11,22-Ac-ANAX1(2-26)-OH (Ac-AMVSEFLKQEWFIENEEQEYEQTVK-OH) [Pep60, 25 amino acids; Annexin 1 (2-26), residues 10 and 21 glutamic acid, residue 1 acetylated] | – | – | – | – | – | displayed potent inhibitory properties similar to those displayed by the parent Ac2-26 peptide | not that effective to phosphorylate ERK | – | – | – | –
6 | Ile11,22-Ac-ANAX1(2-26)-OH (Ac-AMVSEFLKQIWFIENEEQEYIQTVK-OH) [Pep83, 25 amino acids; Annexin 1 (2-26), residues 10 and 21 isoleucine, residue 1 acetylated] | – | – | – | – | – | only Pep57 (SEQ ID NO: 12), Pep60 (SEQ ID NO: 15) and Pep84 (SEQ ID NO: 14) display inhibitory properties | – | – | – | – | –
7 | Leu11,22-Ac-ANAX1(2-26)-OH (Ac-AMVSEFLKQLWFIENEEQEYLQTVK-OH) [Pep57, 25 amino acids; Annexin 1 (2-26), residues 10 and 21 leucine, residue 1 acetylated] | significantly inhibited PMN-HUVEC interactions | significantly inhibiting leukocyte infiltration; also recorded: displayed inhibitory potential in the model | – | – | – | displayed inhibitory properties similar to those observed in the parent Ac2-26 peptide | p-ERK activated was observed to be highest | lead to downstream signaling via the FPR family of receptors | 10 | losing this observed effect | display anti-inflammatory properties
8 | Met11,22-Ac-ANAX1(2-26)-OH (Ac-AMVSEFLKQMWFIENEEQEYMQTVK-OH) [Pep84] | significantly inhibited PMN-HUVEC interactions | inhibiting this inflammatory readout to a larger extent | – | – | – | displayed inhibitory properties similar to those observed in the parent Ac2-26 peptide | p-ERK activated was observed to be highest | lead to downstream signaling via the FPR family of receptors | 10 | – | display anti-inflammatory properties
